The target of one assay is T1, p38 alpha (Homo sapiens, UniProt Q16539).
T1 construct: purchased Invitrogen PV3304
The experiment in a line: P38 alpha enzyme inhibition assay (Alphascreen kinase activity assay). Format: biochemical. To be noted: 100 pM p38 alpha, 2 hours preincubation at 25° C., 250 μM ATP, ATF-2 fusion protein; read-out: p38α inhibition. The gist of the method:
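100 pM p38 alpha preincubated 2 h at 25 °C with compound and 0.3 μg/ml ATF-2 fusion substrate (HEPES pH 7.5, MgCl2, 1% DMSO). Reaction started with 250 μM ATP, run 1 h at 25 °C, stopped with EDTA; phospho-ATF2 detected by AlphaScreen luminescence. IC50 from concentration-response curves.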
(Alpha assays give light when donor and acceptor beads are brought close together.)

Assay [1] deals with Peripheral Blood Mononuclear Cells (PBMCs), TNFα release. Kind of assay: LPS-stimulated PBMC TNFα release assay. Format: cell-based. Conditions: human PBMC, LPS (10 ng/ml), 18 h, compound 1 h before LPS; read-out: LPS-stimulated PBMC TNFα release inhibition. In a few lines: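 Human PBMCs from healthy donors, serum-starved 3 h, then pre-incubated 1 h at 37 °C with compound in 1% FBS medium before LPS (10 ng/ml) for 18 h. Supernatant TNFα measured by MSD; IC50 from dose-response as % inhibition of control, at least three experiments.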

Results on 17 compounds are retold here after patent US10364245B2 (CHIESI FARMACEUTICI S.p.A., priority 2017, dated 2019).

Structures can show the parent of a compound that is named as a salt.

T1 sequence (Q16539 whole entry): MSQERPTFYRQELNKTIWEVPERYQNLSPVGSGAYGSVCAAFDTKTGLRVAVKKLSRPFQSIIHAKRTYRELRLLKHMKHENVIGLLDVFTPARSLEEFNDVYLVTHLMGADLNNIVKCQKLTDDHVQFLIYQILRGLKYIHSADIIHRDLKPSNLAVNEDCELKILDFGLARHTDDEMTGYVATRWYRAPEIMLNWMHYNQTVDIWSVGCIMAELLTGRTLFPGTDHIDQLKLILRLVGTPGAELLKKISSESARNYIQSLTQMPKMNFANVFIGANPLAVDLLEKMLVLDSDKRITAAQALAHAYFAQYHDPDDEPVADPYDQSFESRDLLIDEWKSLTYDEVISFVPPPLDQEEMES

As for `COC1CN(CCNC(=O)c2nc(NC(=O)N[C@H]3CC[C@@H](Oc4ccc5nnc(C6(C)CC6)n5c4)c4ccccc43)cc(C(C)(C)C)n2)C1` [Example 138, 4-(tert-butyl)-N-(2-(3-methoxyazetidin-1-yl)ethyl)-6-(3-((1S,4R)-4-((3-(1-methylcyclopropyl)-[1,2,4]triazolo[4,3-a]pyridin-6-yl)oxy)-1,2,3,4-tetrahydronaphthalen-1-yl)ureido)pyrimidine-2-carboxamide], the results for the IC50 (at p38 alpha; in assay [1]) were under 1 nM and over 5 nM, respectively.
The corresponding values for `CN1CCN(C(C)(C)c2nnc3ccc(O[C@@H]4CC[C@H](NC(=O)Nc5cc(C(C)(C)C)nc(C(=O)NCCO)n5)c5ccccc54)cn23)CC1` [Example 139, 4-(tert-butyl)-N-(2-hydroxyethyl)-6-(3-((1S,4R)-4-((3-(2-(4-methylpiperazin-1-yl)propan-2-yl)-[1,2,4]triazolo[4,3-a]pyridin-6-yl)oxy)-1,2,3,4-tetrahydronaphthalen-1-yl)ureido)pyrimidine-2-carboxamide] are 1 to 10 nM and over 5 nM.
For `CC(C)(C)c1cc(NC(=O)N[C@H]2CC[C@@H](Oc3ccc4nnc(C(C)(C)C)n4c3)c3ccccc32)nc(C(=O)NCCN2CCC2)n1` [Example 140, N-(2-(azetidin-1-yl)ethyl)-4-(tert-butyl)-6-(3-((1S,4R)-4-((3-(tert-butyl)-[1,2,4]triazolo[4,3-a]pyridin-6-yl)oxy)-1,2,3,4-tetrahydronaphthalen-1-yl)ureido)pyrimidine-2-carboxamide] the same measures were under 1 nM and over 5 nM.
The corresponding values for `CCN(CC)c1nnc2ccc(O[C@@H]3CC[C@H](NC(=O)Nc4cc(C(C)(C)C)nc(C(=O)NCCN(C)C)n4)c4ccccc43)cn12` [Example 142, 4-(tert-butyl)-6-(3-((1S,4R)-4-((3-(diethylamino)-[1,2,4]triazolo[4,3-a]pyridin-6-yl)oxy)-1,2,3,4-tetrahydronaphthalen-1-yl)ureido)-N-(2-(dimethylamino)ethyl)-pyrimidine-2-carboxamide] are under 1 nM and 1 to 5 nM.
As for `CCN(CC)c1nnc2ccc(O[C@@H]3CC[C@H](NC(=O)Nc4cc(C(C)(C)C)nc(C(=O)NCC(C)(C)N(C)C)n4)c4ccccc43)cn12` [Example 143, 4-(tert-butyl)-6-(3-((1S,4R)-4-((3-(diethylamino)-[1,2,4]triazolo[4,3-a]pyridin-6-yl)oxy)-1,2,3,4-tetrahydronaphthalen-1-yl)ureido)-N-(2-(dimethylamino)-2-methylpropyl)pyrimidine-2-carboxamide], the IC50 is under 1 nM on p38 alpha and 1 to 5 nM in assay [1].
The corresponding values for `CN(CCO)CCNC(=O)c1nc(NC(=O)N[C@H]2CC[C@@H](Oc3ccc4nnc(C5(C)CC5)n4c3)c3ccccc32)cc(C(C)(C)C)n1` [Example 145, 4-(tert-butyl)-N-(2-((2-hydroxyethyl)(methyl)-amino)ethyl)-6-(3-((1S,4R)-4-((3-(1-methylcyclopropyl)-[1,2,4]triazolo[4,3-a]pyridin-6-yl)oxy)-1,2,3,4-tetrahydronaphthalen-1-yl)ureido)pyrimidine-2-carboxamide] are under 1 nM and over 5 nM.
The corresponding values for `CC[C@H](C)c1nnc2ccc(O[C@@H]3CC[C@H](NC(=O)Nc4cc(C(C)(C)C)nc(C(=O)NCCN(C)CC)n4)c4ccccc43)cn12` [Example 146, 4-(tert-butyl)-6-(3-((1S,4R)-4-((3-((S)-sec-butyl)-[1,2,4]triazolo[4,3-a]pyridin-6-yl)oxy)-1,2,3,4-tetrahydronaphthalen-1-yl)ureido)-N-(2-(ethyl(methyl)amino)-ethyl)pyrimidine-2-carboxamide] are under 1 nM and 1 to 5 nM.
For `COCC(C)(C)c1nnc2ccc(O[C@@H]3CC[C@H](NC(=O)Nc4cc(C(C)(C)C)nc(C(=O)NCC5(N(C)C)CC5)n4)c4ccccc43)cn12` [Example 149, 4-(tert-butyl)-N-((1-(dimethylamino)cyclopropyl)methyl)-6-(3-((1S,4R)-4-((3-(l-methoxy-2-methylpropan-2-yl)-[1,2,4]triazolo[4,3-a]pyridin-6-yl)oxy)-1,2,3,4-tetrahydronaphthalen-1-yl)ureido)pyrimidine-2-carboxamide] the same measures were under 1 nM and 1 to 5 nM.
In the case of `CN1CCN(C(C)(C)CNC(=O)c2nc(NC(=O)N[C@H]3CC[C@@H](Oc4ccc5nnc(C(C)(C)C)n5c4)c4ccccc43)cc(C(C)(C)C)n2)CC1` [Example 151, 4-(tert-butyl)-6-(3-((1S,4R)-4-((3-(tert-butyl)-[1,2,4]triazolo[4,3-a]pyridin-6-yl)oxy)-1,2,3,4-tetrahydronaphthalen-1-yl)ureido)-N-(2-methyl-2-(4-methylpiperazin-1-yl)propyl)pyrimidine-2-carboxamide], the values for the IC50 (on p38 alpha; in assay [1]) were under 1 nM and over 5 nM, respectively.
For `CCN(C)C(C)(C)CNC(=O)c1nc(NC(=O)N[C@H]2CC[C@@H](Oc3ccc4nnc(C(C)(C)COC)n4c3)c3ccccc32)cc(C(C)(C)C)n1` [Example 152, 4-(tert-butyl)-N-(2-(ethyl(methyl)amino)-2-methylpropyl)-6-(3-((1S,4R)-4-((3-(1-methoxy-2-methylpropan-2-yl)-[1,2,4]triazolo[4,3-a]pyridin-6-yl)oxy)-1,2,3,4-tetrahydronaphthalen-1-yl)ureido)pyrimidine-2-carboxamide], the IC50 was under 1 nM on p38 alpha and over 5 nM in assay [1].
For `COCC(C)(C)c1nnc2ccc(O[C@@H]3CC[C@H](NC(=O)Nc4cc(C(C)(C)C)nc(C(=O)NCC5(N(C)C)CCCC5)n4)c4ccccc43)cn12` [Example 154, 4-(tert-butyl)-N-((1-(dimethylamino)cyclopentyl)methyl)-6-(3-((1S,4R)-4-((3-(1-methoxy-2-methylpropan-2-yl)-[1,2,4]triazolo[4,3-a]pyridin-6-yl)oxy)-1,2,3,4-tetrahydronaphthalen-1-yl)ureido)pyrimidine-2-carboxamide] the same measures were under 1 nM and over 5 nM.
For `COCC(C)(C)c1nnc2ccc(O[C@@H]3CC[C@H](NC(=O)Nc4cc(C(C)(C)C)nc(C(=O)NCC(C)(C)N5CCN(C)CC5)n4)c4ccccc43)cn12` [Example 155, 4-(tert-butyl)-6-(3-((1S,4R)-4-((3-(1-methoxy-2-methylpropan-2-yl)-[1,2,4]triazolo[4,3-a]pyridin-6-yl)oxy)-1,2,3,4-tetrahydronaphthalen-1-yl)ureido)-N-(2-methyl-2-(4-methylpiperazin-1-yl)propyl)pyrimidine-2-carboxamide] the same measures were under 1 nM and over 5 nM.
Consider `COCC(C)(C)c1nnc2ccc(O[C@@H]3CC[C@H](NC(=O)Nc4cc(C(C)(C)C)nc(C(=O)NCC5(N(C)C)CCC5)n4)c4ccccc43)cn12` [Example 158, 4-(tert-Butyl)-N-((1-(dimethylamino)-cyclobutyl)methyl)-6-(3-((1S,4R)-4-((3-(1-methoxy-2-methylpropan-2-yl)-[1,2,4]triazolo[4,3-a]pyridin-6-yl)oxy)-1,2,3,4-tetrahydronaphthalen-1-yl)ureido)pyrimidine-2-carboxamide formate salt], for which the IC50 on p38 alpha is under 1 nM; in assay [1], 1 to 5 nM.
The corresponding values for `CN(C)C1(CNC(=O)c2nc(NC(=O)N[C@H]3CC[C@@H](Oc4ccc5nnc(C(C)(C)C)n5c4)c4ccccc43)cc(C(C)(C)C)n2)CC1` [Example 159, 4-(tert-butyl)-6-(3-((1S,4R)-4-((3-(tert-butyl)-[1,2,4]triazolo[4,3-a]pyridin-6-yl)oxy)-1,2,3,4-tetrahydronaphthalen-1-yl)ureido)-N-((1-(dimethylamino)-cyclopropyl)methyl)-pyrimidine-2-carboxamide] are 1 to 10 nM and over 5 nM.
The corresponding values for `COCC(C)(C)c1nnc2ccc(O[C@@H]3CC[C@H](NC(=O)Nc4cc(C(C)(C)C)nc(C(=O)NCCN5CC(OC)C5)n4)c4ccccc43)cn12` [Example 166, 4-(tert-butyl)-6-(3-((1S,4R)-4-((3-(1-methoxy-2-methylpropan-2-yl)-[1,2,4]triazolo[4,3-a]pyridin-6-yl)oxy)-1,2,3,4-tetrahydronaphthalen-1-yl)ureido)-N-(2-(3-methoxyazetidin-1-yl)ethyl)pyrimidine-2-] are under 1 nM and over 5 nM.
For `CC[C@H](C)c1nnc2ccc(O[C@@H]3CC[C@H](NC(=O)Nc4cc(C(C)(C)C)nc(C(=O)NCCN5CC(OC)C5)n4)c4ccccc43)cn12` [Example 169, 4-(tert-butyl)-6-(3-((1S,4R)-4-((3-((S)-sec-butyl)-[1,2,4]triazolo[4,3-a]pyridin-6-yl)oxy)-1,2,3,4-tetrahydronaphthalen-1-yl)ureido)-N-(2-(3-methoxyazetidin-1-yl)ethyl)pyrimidine-2-carboxamide] the same measures were under 1 nM and 1 to 5 nM.
As for `COCC(C)(C)c1nnc2ccc(O[C@@H]3CC[C@H](NC(=O)Nc4cc(C(C)(C)C)nc(C(=O)NCC(C)(C)N5CC(OC)C5)n4)c4ccccc43)cn12` [Example 171, 4-(tert-butyl)-6-(3-((1S,4R)-4-((3-(1-methoxy-2-methylpropan-2-yl)-[1,2,4]triazolo[4,3-a]pyridin-6-yl)oxy)-1,2,3,4-tetrahydronaphthalen-1-yl)ureido)-N-(2-(3-methoxyazetidin-1-yl)-2-methylpropyl)pyrimidine-2-carboxamide], the IC50 on p38 alpha lay in the range of 1 to 10 nM; in assay [1] it was 1 to 5 nM.
